Source: article PMC11775380, “Discovery of Novel Nav1.7-Selective Inhibitors with the 1H-Indole-3-Propionamide Scaffold for Effective Pain Relief” (Research, 2025)

Biological target: T1, human Nav1.7 (hNav1.7) (Homo sapiens, UniProt Q15858)
T1 construct: expressed in transfected cells; host or cells: HEK293T
Assay: Whole-cell patch-clamp inhibition of Nav1.7 currents in transfected HEK293T cells
Assay type: cell-based
Details: HEK-293T; 10 μM compound; inhibition rate of Nav1.7; read-out: Inhibitory activity (10 μM)
Procedure: Human embryonic kidney (HEK) 293T (ATCC CRL-3216) and ND7/23 cells (National Collection of Authenticated Cell Cultures SCSP-5026) were cultured under standard conditions (5% CO2, 37 °C) in Dulbecco’s modified Eagle’s medium (DMEM) containing 10% fetal bovine serum and 1% penicillin-streptomycin solution(all from Gibco, Thermo Fisher Scientific, Waltham, MA, USA). When the cells reached 70% to 90% confluence, human Nav1.2 (hNav1.2), human Nav1.3 (hNav1.3), human Nav1.4 (hNav1.4), human Nav1.5 (hNav1.5), and mouse Nav1.6 (mNav1.6) channel plasmids were cotransfected with enhanced green fluorescent protein (eGFP) into HEK293T cells. Additionally, plasmids expressing β1 and β2 subunits tagged with eGFP were cotransfected with the human Nav1.7 (hNav1.7) channel into HEK293T cells. Human Nav1.8 (hNav1.8) was transiently transfected into ND7/23 cells, along with eGFP, using Lipofectamine 2000 (Invitrogen), adhering strictly to the manufacturer’s protocol. For manual patch-clamp experiments, the cells were plated onto glass coverslips and used within 20 to 48 h of transfection.
Whole-cell patch-clamp recordings were conducted at 25 ± 2 °C, utilizing an EPC 10USB patch-clamp amplifier (HEKA Elektronik, Lambrecht, Germany). Pipettes, with access resistance between 2.0 and 3.0 MΩ, were pulled from borosilicate glass capillary tubes using a 2-step vertical microelectrode puller (PC-10, Narishige Group, Tokyo, Japan). Voltage-clamp recordings were obtained with PatchMaster software v2 × 73 (HEKA Elektronik) 5 min after establishing whole-cell configuration, sampled at 20 kHz, and filtered at 5 kHz. To minimize voltage errors, 80% series resistance compensation was applied. Pipettes were filled with 140 mM CsF, 10 mM NaCl, 1 mM EGTA, and 10 mM HEPES (pH=7.4, adjusted with CsOH). The external solution contained 140 mM NaCl, 2 mM CaCl2, 1 mM MgCl2, 5 mM KCl, 10 mM HEPES, and 10 mM glucose (pH=7.4, adjusted with NaOH). IC50 values were determined in HEK293T or ND7/23 cell lines by voltage clamping at −80 mV, followed by stepping to the V1/2 of inactivation for 8 s to facilitate compound binding.

T1 sequence (Q15858 whole entry): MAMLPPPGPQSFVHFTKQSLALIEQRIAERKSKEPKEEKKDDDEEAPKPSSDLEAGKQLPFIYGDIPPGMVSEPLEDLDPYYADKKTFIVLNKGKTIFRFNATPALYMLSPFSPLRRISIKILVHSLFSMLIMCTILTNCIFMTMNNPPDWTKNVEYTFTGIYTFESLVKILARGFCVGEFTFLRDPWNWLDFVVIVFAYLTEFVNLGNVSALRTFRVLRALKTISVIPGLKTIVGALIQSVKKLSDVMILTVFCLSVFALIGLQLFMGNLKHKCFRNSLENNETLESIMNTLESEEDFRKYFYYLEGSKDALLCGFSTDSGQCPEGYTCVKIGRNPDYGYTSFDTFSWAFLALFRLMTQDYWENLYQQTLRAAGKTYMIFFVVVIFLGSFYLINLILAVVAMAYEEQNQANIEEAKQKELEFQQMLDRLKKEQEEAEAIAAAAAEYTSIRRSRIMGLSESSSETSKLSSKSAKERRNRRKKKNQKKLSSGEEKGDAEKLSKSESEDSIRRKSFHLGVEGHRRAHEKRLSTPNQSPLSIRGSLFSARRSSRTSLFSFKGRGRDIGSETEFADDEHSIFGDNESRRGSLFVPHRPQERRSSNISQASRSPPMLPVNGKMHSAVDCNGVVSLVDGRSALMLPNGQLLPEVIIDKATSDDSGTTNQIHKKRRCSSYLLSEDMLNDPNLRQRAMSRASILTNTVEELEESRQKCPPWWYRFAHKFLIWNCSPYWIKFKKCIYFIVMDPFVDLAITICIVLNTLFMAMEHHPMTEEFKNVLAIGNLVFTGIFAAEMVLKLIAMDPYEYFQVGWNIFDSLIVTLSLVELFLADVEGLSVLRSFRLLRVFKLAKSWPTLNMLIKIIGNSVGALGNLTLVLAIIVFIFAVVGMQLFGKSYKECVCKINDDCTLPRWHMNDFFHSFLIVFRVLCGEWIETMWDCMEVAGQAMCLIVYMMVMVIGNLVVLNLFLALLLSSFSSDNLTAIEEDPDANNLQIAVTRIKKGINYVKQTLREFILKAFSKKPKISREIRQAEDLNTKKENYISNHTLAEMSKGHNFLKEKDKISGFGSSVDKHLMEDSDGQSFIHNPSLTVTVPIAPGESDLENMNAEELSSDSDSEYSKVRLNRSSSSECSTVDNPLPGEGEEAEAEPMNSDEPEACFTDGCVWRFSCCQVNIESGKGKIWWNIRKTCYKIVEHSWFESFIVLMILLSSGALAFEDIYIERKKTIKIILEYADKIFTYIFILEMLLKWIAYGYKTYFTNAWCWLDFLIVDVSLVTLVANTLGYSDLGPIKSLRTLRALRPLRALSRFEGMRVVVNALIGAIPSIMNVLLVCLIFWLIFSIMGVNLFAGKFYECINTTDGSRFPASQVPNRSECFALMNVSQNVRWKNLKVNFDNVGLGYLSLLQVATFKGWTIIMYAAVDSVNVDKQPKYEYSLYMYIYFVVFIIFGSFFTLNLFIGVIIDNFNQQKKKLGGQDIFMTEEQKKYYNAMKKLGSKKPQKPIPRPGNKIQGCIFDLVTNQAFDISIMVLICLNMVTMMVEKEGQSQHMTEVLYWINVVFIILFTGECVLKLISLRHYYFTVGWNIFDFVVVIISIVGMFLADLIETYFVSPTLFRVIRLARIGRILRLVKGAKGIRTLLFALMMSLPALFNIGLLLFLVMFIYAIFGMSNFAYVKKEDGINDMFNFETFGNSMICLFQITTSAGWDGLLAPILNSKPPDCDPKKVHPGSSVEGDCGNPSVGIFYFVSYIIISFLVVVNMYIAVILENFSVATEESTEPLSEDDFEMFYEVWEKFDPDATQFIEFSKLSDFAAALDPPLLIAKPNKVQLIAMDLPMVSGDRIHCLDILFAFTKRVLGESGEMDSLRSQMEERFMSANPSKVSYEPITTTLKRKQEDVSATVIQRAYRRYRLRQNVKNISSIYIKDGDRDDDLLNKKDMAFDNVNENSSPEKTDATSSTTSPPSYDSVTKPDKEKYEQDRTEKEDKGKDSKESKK
T1 sequence (Q07699 19-218 partner): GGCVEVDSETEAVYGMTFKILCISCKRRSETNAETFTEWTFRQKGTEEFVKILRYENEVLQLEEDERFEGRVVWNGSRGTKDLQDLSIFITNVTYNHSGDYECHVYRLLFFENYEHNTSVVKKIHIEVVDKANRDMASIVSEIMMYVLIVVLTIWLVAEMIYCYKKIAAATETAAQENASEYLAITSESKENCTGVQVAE
T1 sequence (O60939 30-215 partner): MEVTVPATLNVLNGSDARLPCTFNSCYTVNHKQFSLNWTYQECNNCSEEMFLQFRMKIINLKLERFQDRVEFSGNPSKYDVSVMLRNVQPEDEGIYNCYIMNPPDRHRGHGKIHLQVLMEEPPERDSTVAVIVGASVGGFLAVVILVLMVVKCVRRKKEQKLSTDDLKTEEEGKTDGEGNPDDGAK

| inhibition at 10 µM | Compound |
| --- | --- |
| -0.67% | O=C(CSc1nc(=O)n(Cc2cccnc2)c2c1CCC2)NCc1ccc(F)cc1 [A1, C1CC2=C(C1)N(C(=O)N=C2SCC(=O)NCC3=CC=C(C=C3)F)CC4=CN=CC=C4] |
| 36.6% | COc1ccc(S(=O)(=O)Nc2ccc3c(c2)CCCN3C(=O)c2ccccc2)cc1OC [A2, COC1=C(C=C(C=C1)S(=O)(=O)NC2=CC3=C(C=C2)N(CCC3)C(=O)C4=CC=CC=C4)OC] |
| 9.09% | O=C(CC(c1cccc(OCc2ccccc2)c1)c1cn(Cc2ccc(F)cc2)c2ccccc12)NCCc1ccccc1 (stereo not shown) [A3, C1=CC=C(C=C1)CCNC(=O)CC(C2=CC(=CC=C2)OCC3=CC=CC=C3)C4=CN(C5=CC=CC=C54)CC6=CC=C(C=C6)F] |
| 76.4% | O=C(CN(C(=O)c1ccc(Cl)cc1)C1CC1)Nc1nc(-c2ccccc2)cn1-c1ccccc1 [A4, C1CC1N(CC(=O)NC2=NC(=CN2C3=CC=CC=C3)C4=CC=CC=C4)C(=O)C5=CC=C(C=C5)Cl] |
| 58% | O=C(CC(c1cccc(Cl)c1)c1cn(Cc2ccc(F)cc2)c2ccccc12)NCC1COc2ccccc2O1 (stereo not shown) [A7, FC(C=C1)=CC=C1CN2C=C(C(CC(NCC3COC(C=CC=C4)=C4O3)=O)C5=CC(Cl)=CC=C5)C6=CC=CC=C62] |
| 12.1% | COc1ccc(N2CC(C(=O)NC3CCCc4c3[nH]c3ccccc43)CC2=O)c(OC)c1 (stereo not shown) [A8, COC1=CC(=C(C=C1)N2CC(CC2=O)C(=O)NC3CCCC4=C3NC5=CC=CC=C45)OC] |
| 4.44% | Brc1ccc(-c2nc(-c3ccc(Oc4ccccc4)cc3)c(-c3ccc(Oc4ccccc4)cc3)[nH]2)cc1 [A9, C1=CC=C(C=C1)OC2=CC=C(C=C2)C3=C(N=C(N3)C4=CC=C(C=C4)Br)C5=CC=C(C=C5)OC6=CC=CC=C6] |
| 2.74% | O=C1OC(Nc2ccc(S(=O)(=O)Nc3ccccn3)cc2)c2ccccc21 (stereo not shown) [A10, C1=CC=C2C(=C1)C(OC2=O)NC3=CC=C(C=C3)S(=O)(=O)NC4=CC=CC=N4] |
| 4.91% | CS(=O)(=O)c1ccc2nc(NC(=O)Nc3ccc(Cl)c(Cl)c3)sc2c1 [A11, CS(=O)(=O)C1=CC2=C(C=C1)N=C(S2)NC(=O)NC3=CC(=C(C=C3)Cl)Cl] |
| 9.32% | CC(=O)N1CCc2nc3sc(C(=O)Nc4cccc(C#N)c4)c(N)c3c(C(F)(F)F)c2C1 [A12, CC(=O)N1CCC2=C(C1)C(=C3C(=C(SC3=N2)C(=O)NC4=CC=CC(=C4)C#N)N)C(F)(F)F] |
| 2.68% | O=C(Nc1ccccc1C(F)(F)F)c1ccc2c(c1)C(=O)N(Cc1cccnc1)C2=O [A14, C1=CC=C(C(=C1)C(F)(F)F)NC(=O)C2=CC3=C(C=C2)C(=O)N(C3=O)CC4=CN=CC=C4] |
| 6.13% | O=C(CC(c1ccc(F)cc1)c1cn(Cc2ccccc2)c2ccccc12)NCCc1ccc(Cl)cc1Cl (stereo not shown) [B1, C1=CC=C(C=C1)CN2C=C(C3=CC=CC=C32)C(CC(=O)NCCC4=C(C=C(C=C4)Cl)Cl)C5=CC=C(C=C5)F] |
| 11.5% | O=C(CC(c1ccc(F)cc1)c1cn(Cc2ccccc2)c2ccccc12)NCc1ccccn1 (stereo not shown) [B2, C1=CC=C(C=C1)CN2C=C(C3=CC=CC=C32)C(CC(=O)NCC4=CC=CC=N4)C5=CC=C(C=C5)F] |
| 13.4% | NC(=O)CC(c1ccc(C(F)(F)F)cc1)c1cn(Cc2ccc(F)cc2)c2ccccc12 (stereo not shown) [B4, C1=CC=C2C(=C1)C(=CN2CC3=CC=C(C=C3)F)C(CC(=O)N)C4=CC=C(C=C4)C(F)(F)F] |
| 1.84% | CCCCNC(=O)CC(c1cccc(C)c1)c1cn(Cc2ccc(F)cc2)c2ccccc12 (stereo not shown) [B7, CCCCNC(=O)CC(C1=CC=CC(=C1)C)C2=CN(C3=CC=CC=C32)CC4=CC=C(C=C4)F] |
| 6.28% | O=C(CC(c1cccc(Oc2ccc(Cl)cc2)c1)c1cn(Cc2ccc(F)cc2)c2ccccc12)NCCc1ccccn1 (stereo not shown) [B13, C1=CC=C2C(=C1)C(=CN2CC3=CC=C(C=C3)F)C(CC(=O)NCCC4=CC=CC=N4)C5=CC(=CC=C5)OC6=CC=C(C=C6)Cl] |
| 24.8% | Cn1cc(C(CC(=O)NCCc2ccccn2)c2cccc(C(F)(F)F)c2)c2ccccc21 (stereo not shown) [B14, CN1C=C(C2=CC=CC=C21)C(CC(=O)NCCC3=CC=CC=N3)C4=CC(=CC=C4)C(F)(F)F] |
| 4.16% | O=C(CC(c1ccc(OCc2ccccc2)cc1)c1cn(Cc2ccc(F)cc2)c2ccccc12)NCCc1ccccn1 (stereo not shown) [B16, C1=CC=C(C=C1)COC2=CC=C(C=C2)C(CC(=O)NCCC3=CC=CC=N3)C4=CN(C5=CC=CC=C54)CC6=CC=C(C=C6)F] |
| 22.9% | O=C(CC(c1ccc(F)cc1)c1cn(Cc2ccc(F)cc2)c2ccccc12)NCCc1ccccn1 (stereo not shown) [B19, C1=CC=C2C(=C1)C(=CN2CC3=CC=C(C=C3)F)C(CC(=O)NCCC4=CC=CC=N4)C5=CC=C(C=C5)F] |

| Compound | inhibition at 10 µM |
| --- | --- |
| COCCNC(=O)CC(c1ccc(OCc2ccccc2)c(OC)c1)c1cn(Cc2ccc(F)cc2)c2ccccc12 (stereo not shown) [A5, COCCNC(=O)CC(C1=CC(=C(C=C1)OCC2=CC=CC=C2)OC)C3=CN(C4=CC=CC=C43)CC5=CC=C(C=C5)F] | 3.57% |
| CCOc1ccc(C2N(c3ccc(Cl)c(Cl)c3)N=C(C(C)=O)N2c2ccc(N3CCN(C(C)=O)CC3)cc2)cc1 (stereo not shown) [A13, CCOC1=CC=C(C=C1)C2N(C(=NN2C3=CC(=C(C=C3)Cl)Cl)C(=O)C)C4=CC=C(C=C4)N5CCN(CC5)C(=O)C] | 15.8% |
| COc1ccc(Cn2cc(C(CC(=O)NCCc3ccccn3)c3ccc(C)cc3)c3ccccc32)cc1 (stereo not shown) [B3, CC1=CC=C(C=C1)C(CC(=O)NCCC2=CC=CC=N2)C3=CN(C4=CC=CC=C43)CC5=CC=C(C=C5)OC] | 14.2% |
| Cc1cccc(C(CC(=O)NCCc2ccccc2)c2cn(Cc3ccc(F)cc3)c3ccccc23)c1 (stereo not shown) [B5, CC1=CC(=CC=C1)C(CC(=O)NCCC2=CC=CC=C2)C3=CN(C4=CC=CC=C43)CC5=CC=C(C=C5)F] | 2.93% |
| Cc1cccc(C(CC(=O)NCCC(C)C)c2cn(Cc3ccc(F)cc3)c3ccccc23)c1 (stereo not shown) [B6, CC1=CC(=CC=C1)C(CC(=O)NCCC(C)C)C2=CN(C3=CC=CC=C32)CC4=CC=C(C=C4)F] | 7.88% |
| O=C(CC(c1ccc(F)cc1)c1cn(Cc2ccccc2)c2ccccc12)NC1CC1 (stereo not shown) [B8, C1CC1NC(=O)CC(C2=CC=C(C=C2)F)C3=CN(C4=CC=CC=C43)CC5=CC=CC=C5] | 13.6% |
| Cc1ccc(Cn2cc(C(CC(=O)NC3CCCCC3)c3ccc(F)cc3)c3ccccc32)cc1 (stereo not shown) [B9, CC1=CC=C(C=C1)CN2C=C(C3=CC=CC=C32)C(CC(=O)NC4CCCCC4)C5=CC=C(C=C5)F] | 6.85% |
| O=C(CC(c1ccc(C(F)(F)F)cc1)c1cn(Cc2ccccc2)c2ccccc12)NCCN1CCCC1 (stereo not shown) [B11, C1CCN(C1)CCNC(=O)CC(C2=CC=C(C=C2)C(F)(F)F)C3=CN(C4=CC=CC=C43)CC5=CC=CC=C5] | 7.97% |
| COc1ccc(Cn2cc(C(CC(=O)NCCc3ccccn3)c3cc(C)ccc3F)c3ccccc32)cc1 (stereo not shown) [B12, CC1=CC(=C(C=C1)F)C(CC(=O)NCCC2=CC=CC=N2)C3=CN(C4=CC=CC=C43)CC5=CC=C(C=C5)OC] | 4.98% |
| CCOc1ccc(C(CC(=O)NCCc2ccccn2)c2cn(Cc3ccc(OC)cc3)c3ccccc23)cc1 (stereo not shown) [B15, CCOC1=CC=C(C=C1)C(CC(=O)NCCC2=CC=CC=N2)C3=CN(C4=CC=CC=C43)CC5=CC=C(C=C5)OC] | 20.5% |
| COc1ccc(C(CC(=O)NCCc2ccccn2)c2cn(Cc3ccc(F)cc3)c3ccccc23)cc1OC (stereo not shown) [B17, COC1=C(C=C(C=C1)C(CC(=O)NCCC2=CC=CC=N2)C3=CN(C4=CC=CC=C43)CC5=CC=C(C=C5)F)OC] | 34.9% |
| Cc1ccc(Cn2cc(C(CC(=O)NCCc3ccccn3)c3ccc(F)cc3)c3ccccc32)cc1 (stereo not shown) [B18, CC1=CC=C(C=C1)CN2C=C(C3=CC=CC=C32)C(CC(=O)NCCC4=CC=CC=N4)C5=CC=C(C=C5)F] | 13.7% |
